Measured values as given in ChEMBL document CHEMBL6134788, “Development of naphthalimide hydrazide derivatives as potent antibacterial agents against carbapenem-resistant A. baumannii” (RSC Med Chem, 2024).
Converted amounts (≈) assume the structure as drawn. Positions of bridges follow the written chain, without caps; N, C: chain ends. Non-standard residues stand in square brackets, D forms with d. Residues, ends and D or L forms follow the SMILES beside them. *: point of attachment. X1 = CC[C@H](C)CCCCC(=O)*; Dab = NCC[C@H](N)C(=O)O

Legend:
Acinetobacter baumannii [1] = assay: Antibacterial activity against Acinetobacter baumannii ATCC 17978 assessed as inhibition of bacterial growth incubated for 16 to 18 hrs by CLSI protocol based method; type: functional; conditions: time 16-18 hrs, read-out: MIC100
Acinetobacter baumannii [2] = assay: Antibacterial activity against multi-drug resistant Acinetobacter baumannii clinical isolate 3 assessed as inhibition of bacterial growth incubated for 16 to 18 hrs by CLSI protocol based method; type: functional; conditions: time 16-18 hrs, read-out: MIC100
Acinetobacter baumannii [3] = assay: Antibacterial activity against multi-drug resistant Acinetobacter baumannii clinical isolate 8 assessed as inhibition of bacterial growth incubated for 16 to 18 hrs by CLSI protocol based method; type: functional; conditions: time 16-18 hrs, read-out: MIC100
Acinetobacter baumannii [4] = assay: Antibacterial activity against multi-drug resistant Acinetobacter baumannii BC-5 assessed as inhibition of bacterial growth incubated for 16 to 18 hrs by CLSI protocol based method; type: functional; conditions: time 16-18 hrs, read-out: MIC100
Acinetobacter baumannii [5] = assay: Antibacterial activity against multi-drug resistant Acinetobacter baumannii 5-109 assessed as inhibition of bacterial growth incubated for 16 to 18 hrs by CLSI protocol based method; type: functional; conditions: time 16-18 hrs, read-out: MIC100
Acinetobacter baumannii [6] = assay: Antibacterial activity against multi-drug resistant Acinetobacter baumannii H72721 assessed as inhibition of bacterial growth incubated for 16 to 18 hrs by CLSI protocol based method; type: functional; conditions: time 16-18 hrs, read-out: MIC100
Acinetobacter baumannii [7] = assay: Antibacterial activity against multi-drug resistant Acinetobacter baumannii Naval-81 assessed as inhibition of bacterial growth incubated for 16 to 18 hrs by CLSI protocol based method; type: functional; conditions: time 16-18 hrs, read-out: MIC100
Acinetobacter baumannii [8] = assay: Antibacterial activity against multi-drug resistant Acinetobacter baumannii clinical isolate 12 assessed as inhibition of bacterial growth incubated for 16 to 18 hrs by CLSI protocol based method; type: functional; conditions: time 16-18 hrs, read-out: MIC100
Acinetobacter baumannii [9] = assay: Antibacterial activity against multi-drug resistant Acinetobacter baumannii clinical isolate 10 assessed as inhibition of bacterial growth incubated for 16 to 18 hrs by CLSI protocol based method; type: functional; conditions: time 16-18 hrs, read-out: MIC100
Acinetobacter baumannii [10] = assay: Antibacterial activity against multi-drug resistant Acinetobacter baumannii 5-032 assessed as inhibition of bacterial growth incubated for 16 to 18 hrs by CLSI protocol based method; type: functional; conditions: time 16-18 hrs, read-out: MIC100
Klebsiella pneumoniae = assay: Antibacterial activity against Klebsiella pneumoniae BAA 1705 assessed as inhibition of bacterial growth incubated for 16 to 18 hrs by CLSI protocol based method; type: functional; conditions: time 16-18 hrs, read-out: MIC100
Acinetobacter baumannii [11] = assay: Antibacterial activity against multi-drug resistant Acinetobacter baumannii Naval-18 assessed as inhibition of bacterial growth incubated for 16 to 18 hrs by CLSI protocol based method; type: functional; conditions: time 16-18 hrs, read-out: MIC100
Acinetobacter baumannii [12] = assay: Antibacterial activity against multi-drug resistant Acinetobacter baumannii 5-189 assessed as inhibition of bacterial growth incubated for 16 to 18 hrs by CLSI protocol based method; type: functional; conditions: time 16-18 hrs, read-out: MIC100
Acinetobacter baumannii [13] = assay: Antibacterial activity against multi-drug resistant Acinetobacter baumannii Naval-17 assessed as inhibition of bacterial growth incubated for 16 to 18 hrs by CLSI protocol based method; type: functional; conditions: time 16-18 hrs, read-out: MIC100
Acinetobacter baumannii [14] = assay: Antibacterial activity against carbapenem-resistant Acinetobacter baumannii BAA 1605 assessed as inhibition of bacterial growth incubated for 16 to 18 hrs by CLSI protocol based method; type: functional; conditions: time 16-18 hrs, read-out: MIC100
Acinetobacter baumannii [15] = assay: Antibacterial activity against multi-drug resistant Acinetobacter baumannii clinical isolate 1 assessed as inhibition of bacterial growth incubated for 16 to 18 hrs by CLSI protocol based method; type: functional; conditions: time 16-18 hrs, read-out: MIC100
Acinetobacter baumannii [16] = assay: Antibacterial activity against multi-drug resistant Acinetobacter baumannii clinical isolate 2 assessed as inhibition of bacterial growth incubated for 16 to 18 hrs by CLSI protocol based method; type: functional; conditions: time 16-18 hrs, read-out: MIC100
Acinetobacter baumannii [17] = assay: Antibacterial activity against multi-drug resistant Acinetobacter baumannii clinical isolate 11 assessed as inhibition of bacterial growth incubated for 16 to 18 hrs by CLSI protocol based method; type: functional; conditions: time 16-18 hrs, read-out: MIC100
Staphylococcus aureus = assay: Antibacterial activity against Staphylococcus aureus ATCC 29213 assessed as inhibition of bacterial growth incubated for 16 to 18 hrs by CLSI protocol based method; type: functional; conditions: time 16-18 hrs, read-out: MIC100
Acinetobacter baumannii [18] = assay: Antibacterial activity against multi-drug resistant Acinetobacter baumannii clinical isolate 6 assessed as inhibition of bacterial growth incubated for 16 to 18 hrs by CLSI protocol based method; type: functional; conditions: time 16-18 hrs, read-out: MIC100
Acinetobacter baumannii [19] = assay: Antibacterial activity against multi-drug resistant Acinetobacter baumannii clinical isolate 5 assessed as inhibition of bacterial growth incubated for 16 to 18 hrs by CLSI protocol based method; type: functional; conditions: time 16-18 hrs, read-out: MIC100
Acinetobacter baumannii [20] = assay: Antibacterial activity against multi-drug resistant Acinetobacter baumannii 5-143 assessed as inhibition of bacterial growth incubated for 16 to 18 hrs by CLSI protocol based method; type: functional; conditions: time 16-18 hrs, read-out: MIC100
Acinetobacter baumannii [21] = assay: Antibacterial activity against multi-drug resistant Acinetobacter baumannii NR-17777 assessed as inhibition of bacterial growth incubated for 16 to 18 hrs by CLSI protocol based method; type: functional; conditions: time 16-18 hrs, read-out: MIC100
Acinetobacter baumannii [22] = assay: Antibacterial activity against multi-drug resistant Acinetobacter baumannii WL-487 assessed as inhibition of bacterial growth incubated for 16 to 18 hrs by CLSI protocol based method; type: functional; conditions: time 16-18 hrs, read-out: MIC100
Escherichia coli = assay: Antibacterial activity against Escherichia coli ATCC 25922 assessed as inhibition of bacterial growth incubated for 16 to 18 hrs by CLSI protocol based method; type: functional; conditions: time 16-18 hrs, read-out: MIC100
[23] = Cytotoxicity against African green monkey Vero cells assessed as reduction in cell viability incubated for 72 hrs by MTT assay; type: toxicity, cell-based; conditions: chlorocebus sabaeus
Acinetobacter baumannii [24] = assay: Antibacterial activity against multi-drug resistant Acinetobacter baumannii clinical isolate 4 assessed as inhibition of bacterial growth incubated for 16 to 18 hrs by CLSI protocol based method; type: functional; conditions: time 16-18 hrs, read-out: MIC100
Acinetobacter baumannii [25] = assay: Antibacterial activity against multi-drug resistant Acinetobacter baumannii clinical isolate 7 assessed as inhibition of bacterial growth incubated for 16 to 18 hrs by CLSI protocol based method; type: functional; conditions: time 16-18 hrs, read-out: MIC100
Acinetobacter baumannii [26] = assay: Antibacterial activity against multi-drug resistant Acinetobacter baumannii clinical isolate 9 assessed as inhibition of bacterial growth incubated for 16 to 18 hrs by CLSI protocol based method; type: functional; conditions: time 16-18 hrs, read-out: MIC100
Acinetobacter baumannii [27] = assay: Antibacterial activity against multi-drug resistant Acinetobacter baumannii WL-136 assessed as inhibition of bacterial growth incubated for 16 to 18 hrs by CLSI protocol based method; type: functional; conditions: time 16-18 hrs, read-out: MIC100
[28] = Selectivity index, ratio of CC50 for cytotoxicity against African green monkey VERO cells to MIC for antibacterial activity against carbapenem-resistant Acinetobacter baumannii BAA 1605 assessed as inhibition of bacterial growth; type: toxicity, cell-based; conditions: read-out: Selectivity Index
Pseudomonas aeruginosa = assay: Antibacterial activity against Pseudomonas aeruginosa ATCC 27853 assessed as inhibition of bacterial growth incubated for 16 to 18 hrs by CLSI protocol based method; type: functional; conditions: time 16-18 hrs, read-out: MIC100

Structure (SMILES)	MIC (Acinetobacter baumannii [1]) [µg/mL]	MIC (Acinetobacter baumannii [2]) [µg/mL]	MIC (Acinetobacter baumannii [3]) [µg/mL]	MIC (Acinetobacter baumannii [4]) [µg/mL]	MIC (Acinetobacter baumannii [5]) [µg/mL]	MIC (Acinetobacter baumannii [6]) [µg/mL]	MIC (Acinetobacter baumannii [7]) [µg/mL]	MIC (Acinetobacter baumannii [8]) [µg/mL]	MIC (Acinetobacter baumannii [9]) [µg/mL]	MIC (Acinetobacter baumannii [10]) [µg/mL]	MIC (Acinetobacter baumannii [11]) [µg/mL]	MIC (Acinetobacter baumannii [12]) [µg/mL]	MIC (Acinetobacter baumannii [13]) [µg/mL]	MIC (Acinetobacter baumannii [14]) [µg/mL]	MIC (Acinetobacter baumannii [15]) [µg/mL]	MIC (Acinetobacter baumannii [16]) [µg/mL]	MIC (Acinetobacter baumannii [17]) [µg/mL]	MIC (Acinetobacter baumannii [18]) [µg/mL]	MIC (Acinetobacter baumannii [19]) [µg/mL]	MIC (Acinetobacter baumannii [20]) [µg/mL]	other results
O=C(CCN1C(=O)c2cccc3cccc(c23)C1=O)NNc1ccc(F)cc1	1 (≈ 2.65 µM)	0.5 (≈ 1.32 µM)	2 (≈ 5.3 µM)	1 (≈ 2.65 µM)	4 (≈ 10.6 µM)	2 (≈ 5.3 µM)	2 (≈ 5.3 µM)	2 (≈ 5.3 µM)	2 (≈ 5.3 µM)	4 (≈ 10.6 µM)	2 (≈ 5.3 µM)	4 (≈ 10.6 µM)	2 (≈ 5.3 µM)	1 (≈ 2.65 µM)	2 (≈ 5.3 µM)	2 (≈ 5.3 µM)	2 (≈ 5.3 µM)	4 (≈ 10.6 µM)	4 (≈ 10.6 µM)	2 (≈ 5.3 µM)	MIC (Klebsiella pneumoniae): > 64 µg/mL; MIC (Staphylococcus aureus): > 64 µg/mL; MIC (Acinetobacter baumannii [21]): 4 µg/mL (≈ 10.6 µM); MIC (Acinetobacter baumannii [22]): 1 µg/mL (≈ 2.65 µM); MIC (Escherichia coli): > 64 µg/mL; CC50 at 72 h [23]: 80 µg/mL (≈ 212 µM); MIC (Acinetobacter baumannii [24]): 2 µg/mL (≈ 5.3 µM); MIC (Acinetobacter baumannii [25]): 2 µg/mL (≈ 5.3 µM); MIC (Acinetobacter baumannii [26]): 2 µg/mL (≈ 5.3 µM); MIC (Acinetobacter baumannii [27]): 2 µg/mL (≈ 5.3 µM); selectivity ratio [28]: 80; MIC (Pseudomonas aeruginosa): > 64 µg/mL
CC(C)CCCCC(=O)N[C@@H](CCN)C(=O)N[C@H](C(=O)N[C@@H](CCN)C(=O)N[C@H]1CCNC(=O)[C@H]([C@@H](C)O)NC(=O)[C@H](CCN)NC(=O)[C@H](CCN)NC(=O)[C@H](CC(C)C)NC(=O)[C@@H](Cc2ccccc2)NC(=O)[C@H](CCN)NC1=O)[C@@H](C)O.CC[C@H](C)CCCCC(=O)N[C@@H](CCN)C(=O)N[C@H](C(=O)N[C@@H](CCN)C(=O)N[C@H]1CCNC(=O)[C@H]([C@@H](C)O)NC(=O)[C@H](CCN)NC(=O)[C@H](CCN)NC(=O)[C@H](CC(C)C)NC(=O)[C@@H](Cc2ccccc2)NC(=O)[C@H](CCN)NC1=O)[C@@H](C)O (X1-[Dab]T[Dab][Dab][Dab][dF]L[Dab][Dab]T; lactam 4-C)	0.25	0.25	0.5	0.25	0.25	0.25	0.125	0.25	0.25	0.125	0.25	0.25	0.25	0.25	0.25	0.25	0.25	0.25	0.25	0.25	MIC (Acinetobacter baumannii [21]): 0.25 µg/mL; MIC (Acinetobacter baumannii [22]): 0.5 µg/mL; MIC (Acinetobacter baumannii [24]): 0.25 µg/mL; MIC (Acinetobacter baumannii [25]): 0.5 µg/mL; MIC (Acinetobacter baumannii [26]): 0.5 µg/mL; MIC (Acinetobacter baumannii [27]): 0.25 µg/mL
CN(C)c1ccc(O)c2c1C[C@H]1C[C@H]3[C@H](N(C)C)C(O)=C(C(N)=O)C(=O)[C@@]3(O)C(O)=C1C2=O [MINOCYCLINE]	0.125 (≈ 0.273 µM)	1 (≈ 2.19 µM)	4 (≈ 8.74 µM)	2 (≈ 4.37 µM)	2 (≈ 4.37 µM)	2 (≈ 4.37 µM)	1 (≈ 2.19 µM)	4 (≈ 8.74 µM)	2 (≈ 4.37 µM)	0.25 (≈ 0.546 µM)	1 (≈ 2.19 µM)	8 (≈ 17.5 µM)	16 (≈ 35 µM)	2 (≈ 4.37 µM)	2 (≈ 4.37 µM)	2 (≈ 4.37 µM)	2 (≈ 4.37 µM)	4 (≈ 8.74 µM)	8 (≈ 17.5 µM)	0.25 (≈ 0.546 µM)	MIC (Acinetobacter baumannii [21]): 2 µg/mL (≈ 4.37 µM); MIC (Acinetobacter baumannii [22]): 0.25 µg/mL (≈ 0.546 µM); MIC (Acinetobacter baumannii [24]): 2 µg/mL (≈ 4.37 µM); MIC (Acinetobacter baumannii [25]): 8 µg/mL (≈ 17.5 µM); MIC (Acinetobacter baumannii [26]): 4 µg/mL (≈ 8.74 µM); MIC (Acinetobacter baumannii [27]): 0.25 µg/mL (≈ 0.546 µM)
